Like-named read-outs stand apart in the source and are kept apart here.
Columns and labels:
[1] = biological target: PDGFRα (Homo sapiens (Human), UniProt P16234); assay: Inhibition of PDGFRα kinase activity (HTRF KinEASE-TK); details: biochemical, HTRF KinEASE-TK
Outline: (§1)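 Human kinases were preincubated 1 h at rt with a 22-point 1:2 compound titration, then run 120 min at rt with biotinylated TK peptide and ATP (2× mix: c-Kit 16 μM, PDGFRα 1 μM, PDGFRβ 40 μM, CSF1R 20 μM). Phosphopeptide was read by HTRF TR-FRET (665/620 nm), and IC50s came from 4-parameter fits.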

[2] = biological target: PDGFRβ (Homo sapiens (Human), UniProt P09619); assay: Inhibition of PDGFRβ kinase activity (HTRF KinEASE-TK); details: biochemical, HTRF KinEASE-TK
Outline: as §1

[3] = test system: Phospho-KIT (Y703) in M07e cells; assay: Phospho-KIT (Y703) cellular assay in M07e cells; assay type: cell-based; details: M-07e
Method: Phospho-KIT (Y703) Cellular Assay in M07e Cells
The day prior to assay, M07e cells (DSMZ, catalog #ACC 104) were serum starved. Cells were centrifuged and cell pellet resuspended in OptiMEM (Gibco, catalog #31985062) to a density of 1×10^6-2.5×10^6 cells per mL. Cells were then incubated overnight at 5% CO2 and 37° C. in an appropriately sized flask. On the day of the experiment, an 11 point, half log titration of test compound was pre-dispensed into 96-well round bottom polypropylene plates (Corning, catalog #3365). The serum starved M07e cells were centrifuged and resuspended to a cell density of 1×10^6 cells per mL with DPBS (Gibco, catalog #14190-144). Live/Dead Green Fixable viability dye (Invitrogen, catalog #L34970) was added as 1 μL/1 mL of cell suspension. Cells were then incubated in the dark at 4° C. for 30 min. Cells were washed by centrifugation and resuspension with DPBS+0.5% BSA (Gemini Bio Products, catalog #700110/100, 30% BSA solution). Cells were resuspended, separated into two equal volumes and again centrifuged. Cell pellets were resuspended with OptiMEM™ to a cell density of 1×10^6 cells per mL. Cells were then added to the appropriate compound plate at 100,000 cells per well in 100 μL and mixed. Plates were incubated at 5% CO2 and 37° C. for 50 min. Stem Cell Factor, SCF (R&D Systems, #255-SC/CF) was diluted in OptiMEM to 1 μg/mL and added to all wells as 10 μL for a final concentration of 90.9 ng/mL. Plates were incubated at 5% CO2 and 37° C. for 10 min. Incubation was stopped by addition of 110 μL 4% paraformaldehyde solution in PBS (Life Technologies, catalog #J19943.K2). Plates were incubated at rt for at least 15 min. Plates were then centrifuged and supernatant removed by flicking. Cells were washed once by resuspension in 200 μL DPBS+0.5% BSA, centrifuged, and supernatant removed by flicking. Cells were resuspended in 100 μL 1X Permeabilization buffer (Invitrogen, catalog #88882400) and plates incubated at rt for 30 min. Plates were centrifuged, supernatant removed by flicking, and cells resuspended in 50 μL primary antibody, anti-phospho-c-KIT (Tyr703) (Cell Signaling, catalog #3073), diluted to 1 μg/mL with permeabilization buffer. Plates were incubated at rt for 1 h. Plates were centrifuged, supernatant removed, and cells resuspended with 200 μL DPBS+0.5% BSA. Plates were again centrifuged, supernatant removed by flicking, and cells resuspended in 100 μL secondary antibody, goat anti-rabbit AlexaFluor647 (AF647) (Invitrogen, catalog #A21244) diluted to 1 μg/mL with DPBS+0.5% BSA. Plates were incubated at rt for 30 min. followed by centrifugation, supernatant removal, and cell resuspension with 200 μL DPBS+0.5% BSA. Cells were washed again by centrifugation, supernatant removal, and cell resuspension with 200 μL DPBS+0.5% BSA. Samples were then read by flow cytometry. The Forward: Side scatter plot was gated and that population was gated for live cells based on the Live/Dead Green staining. The geometric mean of AF647 of the live cell population was recorded. Percentage maximum activity in each test well was calculated based on DMSO (100% activity) and positive control treated cell wells (0% activity). The potencies (IC50 values) of test compounds were determined using a standard 4-parameter non-linear regression fit.

[4] = biological target: c-Kit (Homo sapiens (Human), UniProt P10721); assay: Inhibition of c-Kit kinase activity (HTRF KinEASE-TK); assay type: biochemical; details: biochemical, HTRF KinEASE-TK
Outline: as §1

[5] = biological target: CSF1R (Homo sapiens (Human), UniProt P07333); assay: Inhibition of CSF1R kinase activity (HTRF KinEASE-TK); details: biochemical, HTRF KinEASE-TK
Outline: as §1

[6] = Phospho-KIT (Y703), M07e cells, read-out: M07e Cell IC50
[7] = M07e cells, read-out: Phospho-KIT (Y703) cellular IC50

PDGFRβ, sequence (P09619 33-1106): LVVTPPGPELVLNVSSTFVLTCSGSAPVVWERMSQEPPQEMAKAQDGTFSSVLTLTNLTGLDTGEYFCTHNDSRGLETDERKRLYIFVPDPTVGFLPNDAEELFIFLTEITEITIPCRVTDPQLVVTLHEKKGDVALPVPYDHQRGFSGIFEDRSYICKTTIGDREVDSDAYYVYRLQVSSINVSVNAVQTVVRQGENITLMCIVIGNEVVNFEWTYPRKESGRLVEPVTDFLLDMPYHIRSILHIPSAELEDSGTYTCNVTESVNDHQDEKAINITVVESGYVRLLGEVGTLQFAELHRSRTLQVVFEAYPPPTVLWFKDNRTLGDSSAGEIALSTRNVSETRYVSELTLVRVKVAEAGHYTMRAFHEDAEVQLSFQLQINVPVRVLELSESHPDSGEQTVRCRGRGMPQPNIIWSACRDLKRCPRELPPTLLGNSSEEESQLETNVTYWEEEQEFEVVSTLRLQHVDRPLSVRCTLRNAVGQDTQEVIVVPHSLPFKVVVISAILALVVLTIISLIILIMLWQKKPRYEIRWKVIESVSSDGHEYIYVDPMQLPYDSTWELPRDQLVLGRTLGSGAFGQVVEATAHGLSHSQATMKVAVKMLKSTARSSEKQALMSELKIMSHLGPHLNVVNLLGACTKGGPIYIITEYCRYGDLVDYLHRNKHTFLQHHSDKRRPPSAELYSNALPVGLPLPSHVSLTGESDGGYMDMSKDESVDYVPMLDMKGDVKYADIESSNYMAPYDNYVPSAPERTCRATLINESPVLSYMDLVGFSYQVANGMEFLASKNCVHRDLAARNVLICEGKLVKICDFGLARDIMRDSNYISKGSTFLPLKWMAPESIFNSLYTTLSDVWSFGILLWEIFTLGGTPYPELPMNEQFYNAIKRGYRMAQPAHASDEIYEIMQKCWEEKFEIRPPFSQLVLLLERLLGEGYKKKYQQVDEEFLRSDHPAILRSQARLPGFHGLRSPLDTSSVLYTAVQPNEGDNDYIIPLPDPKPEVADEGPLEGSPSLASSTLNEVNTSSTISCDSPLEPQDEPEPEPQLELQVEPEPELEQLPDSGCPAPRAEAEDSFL
CSF1R, sequence (P07333 20-972): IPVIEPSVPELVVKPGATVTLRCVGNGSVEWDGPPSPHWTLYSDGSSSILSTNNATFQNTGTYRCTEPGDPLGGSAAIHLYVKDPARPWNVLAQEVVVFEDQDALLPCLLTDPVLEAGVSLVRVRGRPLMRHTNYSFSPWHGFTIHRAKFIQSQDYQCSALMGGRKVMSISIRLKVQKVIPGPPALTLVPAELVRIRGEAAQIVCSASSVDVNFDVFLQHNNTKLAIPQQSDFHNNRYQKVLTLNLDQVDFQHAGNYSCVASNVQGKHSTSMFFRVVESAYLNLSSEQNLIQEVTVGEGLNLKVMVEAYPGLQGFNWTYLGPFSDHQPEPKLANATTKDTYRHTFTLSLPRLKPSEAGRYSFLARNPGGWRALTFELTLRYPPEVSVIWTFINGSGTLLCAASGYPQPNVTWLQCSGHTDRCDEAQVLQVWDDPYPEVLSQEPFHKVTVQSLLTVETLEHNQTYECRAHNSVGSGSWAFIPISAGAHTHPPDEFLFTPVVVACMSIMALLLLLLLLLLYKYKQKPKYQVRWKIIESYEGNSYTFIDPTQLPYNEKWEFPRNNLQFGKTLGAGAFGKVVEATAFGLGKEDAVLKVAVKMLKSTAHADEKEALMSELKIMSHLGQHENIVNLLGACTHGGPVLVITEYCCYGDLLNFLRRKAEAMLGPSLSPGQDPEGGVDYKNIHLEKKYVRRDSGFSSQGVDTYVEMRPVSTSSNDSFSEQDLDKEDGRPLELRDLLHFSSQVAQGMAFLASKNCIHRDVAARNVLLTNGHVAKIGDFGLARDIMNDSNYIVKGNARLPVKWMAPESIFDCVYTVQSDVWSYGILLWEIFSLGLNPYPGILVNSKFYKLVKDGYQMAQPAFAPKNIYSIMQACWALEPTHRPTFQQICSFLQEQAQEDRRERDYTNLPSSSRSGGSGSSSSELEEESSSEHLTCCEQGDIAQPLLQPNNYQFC
PDGFRα, sequence (P16234 24-1089): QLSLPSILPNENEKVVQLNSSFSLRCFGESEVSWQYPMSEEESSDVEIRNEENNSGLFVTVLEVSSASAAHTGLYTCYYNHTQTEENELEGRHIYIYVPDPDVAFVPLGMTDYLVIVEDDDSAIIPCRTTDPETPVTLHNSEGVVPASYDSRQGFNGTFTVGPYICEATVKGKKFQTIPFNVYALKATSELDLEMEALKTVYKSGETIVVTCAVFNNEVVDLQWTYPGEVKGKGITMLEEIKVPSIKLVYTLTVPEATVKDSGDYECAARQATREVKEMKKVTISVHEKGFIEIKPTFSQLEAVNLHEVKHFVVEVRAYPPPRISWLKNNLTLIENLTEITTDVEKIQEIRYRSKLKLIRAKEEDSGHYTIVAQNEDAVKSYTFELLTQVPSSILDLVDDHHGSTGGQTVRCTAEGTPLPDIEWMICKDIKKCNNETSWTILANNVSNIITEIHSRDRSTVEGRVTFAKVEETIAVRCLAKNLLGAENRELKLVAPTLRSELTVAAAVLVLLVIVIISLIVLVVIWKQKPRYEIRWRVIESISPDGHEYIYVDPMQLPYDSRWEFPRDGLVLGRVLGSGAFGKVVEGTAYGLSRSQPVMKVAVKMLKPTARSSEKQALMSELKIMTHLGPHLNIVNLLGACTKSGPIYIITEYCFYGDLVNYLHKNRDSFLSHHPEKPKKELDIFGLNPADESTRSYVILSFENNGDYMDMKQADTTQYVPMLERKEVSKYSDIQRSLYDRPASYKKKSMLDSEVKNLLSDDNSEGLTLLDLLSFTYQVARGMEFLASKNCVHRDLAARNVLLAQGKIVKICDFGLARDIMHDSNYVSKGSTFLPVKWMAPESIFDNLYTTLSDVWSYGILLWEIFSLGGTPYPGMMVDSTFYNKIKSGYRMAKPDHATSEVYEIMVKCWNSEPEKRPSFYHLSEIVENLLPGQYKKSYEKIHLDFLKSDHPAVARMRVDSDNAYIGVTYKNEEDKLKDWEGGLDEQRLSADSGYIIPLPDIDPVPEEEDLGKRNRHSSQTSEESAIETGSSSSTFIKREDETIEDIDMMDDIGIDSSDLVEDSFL
c-Kit, sequence (P10721 26-976): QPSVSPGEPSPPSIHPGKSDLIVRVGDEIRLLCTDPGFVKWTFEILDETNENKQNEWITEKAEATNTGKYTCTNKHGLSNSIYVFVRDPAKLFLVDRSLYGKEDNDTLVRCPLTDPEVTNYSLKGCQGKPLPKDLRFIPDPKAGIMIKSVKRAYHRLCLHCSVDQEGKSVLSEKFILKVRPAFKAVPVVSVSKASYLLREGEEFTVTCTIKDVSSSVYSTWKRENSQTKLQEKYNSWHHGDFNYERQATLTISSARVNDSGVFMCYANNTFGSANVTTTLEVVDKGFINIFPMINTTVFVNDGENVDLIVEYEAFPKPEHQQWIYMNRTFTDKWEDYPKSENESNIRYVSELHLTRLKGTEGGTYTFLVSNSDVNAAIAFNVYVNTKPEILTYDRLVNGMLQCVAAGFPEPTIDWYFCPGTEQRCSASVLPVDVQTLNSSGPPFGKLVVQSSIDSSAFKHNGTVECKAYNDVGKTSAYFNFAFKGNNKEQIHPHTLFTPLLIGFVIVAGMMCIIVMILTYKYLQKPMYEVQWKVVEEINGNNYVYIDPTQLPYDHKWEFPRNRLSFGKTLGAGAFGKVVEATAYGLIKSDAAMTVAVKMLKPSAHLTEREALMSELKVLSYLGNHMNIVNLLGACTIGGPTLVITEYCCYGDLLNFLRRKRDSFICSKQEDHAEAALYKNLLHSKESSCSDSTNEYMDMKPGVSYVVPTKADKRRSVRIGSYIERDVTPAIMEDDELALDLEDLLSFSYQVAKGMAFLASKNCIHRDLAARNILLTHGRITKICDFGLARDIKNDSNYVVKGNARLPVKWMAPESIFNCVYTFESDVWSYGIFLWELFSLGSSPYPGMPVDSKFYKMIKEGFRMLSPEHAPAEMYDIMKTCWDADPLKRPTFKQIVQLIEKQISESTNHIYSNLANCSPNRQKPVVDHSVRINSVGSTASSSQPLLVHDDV

| Compound | IC50 [1] | IC50 [2] | IC50 [3, 6] | IC50 [4] | IC50 [5] | IC50 [3, 7] | IC50 ([3]; read-out: M07e Cell IC50) |
| --- | --- | --- | --- | --- | --- | --- | --- |
| Cc1ncc(C(=O)Nc2cc(C(=O)Nc3cnc(OCC4CC4)cn3)c(F)cc2C)s1 [Example 88, N-{5-[N-5-(cyclopropylmethoxy)-2-pyrazinylcarbamoyl]-4-fluoro-2-tolyl}-2-methyl-1,3-thiazole-5-carboxamide] | > 1000 nM | > 1000 nM | 100 to 1000 nM | 100 to 1000 nM | > 1000 nM | – | – |
| Cc1ncc(C(=O)Nc2cc(C(=O)NCc3ccccc3F)c(F)cc2C)s1 [Example 51, N-(4-fluoro-5-((2-fluorobenzyl)carbamoyl)-2-methylphenyl)-2-methylthiazole-5-carboxamide] | > 1000 nM | > 1000 nM | < 100 nM | 100 to 1000 nM | > 1000 nM | – | – |
| Cc1ncc(C(=O)Nc2cc(C(=O)Nc3cnc(N4CC[C@H](F)C4)cn3)c(F)cc2C)s1 [Example 93, N-[4-fluoro-5-[[5-[(3S)-3-fluoropyrrolidin-1-yl]pyrazin-2-yl]carbamoyl]-2-methylphenyl]-2-methyl-1,3-thiazole-5-carboxamide] | > 1000 nM | > 1000 nM | < 100 nM | < 100 nM | > 1000 nM | – | – |
| Cc1ncc(C(=O)Nc2cc(C(=O)Nc3ccc(OC(C)C)cn3)c(F)cc2Cl)s1 [Example 48, N-[2-chloro-4-fluoro-5-[(5-propan-2-yloxypyridin-2-yl)carbamoyl]phenyl]-2-methyl-1,3-thiazole-5-carboxamide] | > 1000 nM | > 1000 nM | < 100 nM | < 100 nM | > 1000 nM | – | – |
| Cc1ncc(C(=O)Nc2cc(C(=O)NCc3ccc(OC(F)(F)F)c(F)c3)c(F)cc2C)s1 [Example 269, N-[4-fluoro-5-[[3-fluoro-4-(trifluoromethoxy)phenyl]methylcarbamoyl]-2-methylphenyl]-2-methyl-1,3-thiazole-5-carboxamide] | > 1000 nM | > 1000 nM | – | 100 to 1000 nM | > 1000 nM | < 100 nM | – |
| Cc1ncc(C(=O)Nc2cc(C(=O)Nc3ccc(CC(F)(F)F)cn3)c(Cl)cc2C)s1 [Example 99, N-[4-chloro-2-methyl-5-[[5-(2,2,2-trifluoroethyl)pyridin-2-yl]carbamoyl]phenyl]-2-methyl-1,3-thiazole-5-carboxamide] | > 1000 nM | > 1000 nM | – | 100 to 1000 nM | > 1000 nM | – | 100 to 1000 nM |
| Cc1ncc(C(=O)Nc2cc(C(=O)NCc3cccc(F)c3F)c(F)cc2C)s1 [Example 265, N-[5-[(2,3-difluorophenyl)methylcarbamoyl]-4-fluoro-2-methylphenyl]-2-methyl-1,3-thiazole-5-carboxamide] | > 1000 nM | > 1000 nM | – | < 100 nM | > 1000 nM | < 100 nM | – |
| Cc1cc(F)c(C(=O)Nc2ccc(F)cc2)cc1NC(=O)c1cnc(N)s1 [Example 233, 2-Amino-N-[4-fluoro-5-[(4-fluorophenyl)carbamoyl]-2-methylphenyl]-1,3-thiazole-5-carboxamide] | > 1000 nM | > 1000 nM | < 100 nM | < 100 nM | > 1000 nM | – | – |
| Cc1ncc(C(=O)Nc2cc(C(=O)NCc3ccc(OC(F)(F)F)cc3F)c(F)cc2C)s1 [Example 270] | > 1000 nM | > 1000 nM | – | 100 to 1000 nM | > 1000 nM | 100 to 1000 nM | – |
| CC(C)Oc1ccc(NC(=O)c2cc(NC(=O)c3cnc(N)s3)c(Cl)cc2F)nc1 [Example 207, 2-Amino-N-[2-chloro-4-fluoro-5-[(5-propan-2-yloxypyridin-2-yl)carbamoyl]phenyl]-1,3-thiazole-5-carboxamide] | > 1000 nM | > 1000 nM | < 100 nM | < 100 nM | 100 to 1000 nM | – | – |
| COC[C@@H]1CCCN1c1cnc(NC(=O)c2cc(NC(=O)c3cnc(C)s3)c(C)cc2F)cn1 [Example 97, N-[4-fluoro-5-[[5-[(2S)-2-(methoxymethyl)pyrrolidin-1-yl]pyrazin-2-yl]carbamoyl]-2-methylphenyl]-2-methyl-1,3-thiazole-5-carboxamide] | > 1000 nM | > 1000 nM | 100 to 1000 nM | < 100 nM | > 1000 nM | – | – |
| Cc1ncc(C(=O)Nc2cc(C(=O)Nc3ccc(OCC(F)F)cn3)c(F)cc2C)s1 [Example 36, N-[5-[[5-(2,2-difluoroethoxy)pyridin-2-yl]carbamoyl]-4-fluoro-2-methylphenyl]-2-methyl-1,3-thiazole-5-carboxamide] | > 1000 nM | > 1000 nM | < 100 nM | < 100 nM | > 1000 nM | – | – |
| COC[C@H]1CCCN1c1cnc(NC(=O)c2cc(NC(=O)c3cnc(C)s3)c(C)cc2F)cn1 [Example 90, N-(5-{N-5-[(R)-2-(methoxymethyl)-1-pyrrolidinyl]-2-pyrazinylcarbamoyl}-4-fluoro-2-tolyl)-2-methyl-1,3-thiazole-5-carboxamide] | > 1000 nM | > 1000 nM | 100 to 1000 nM | < 100 nM | > 1000 nM | – | – |
| Cc1ncc(C(=O)Nc2cc(C(=O)N[C@@H]3C[C@@H]3c3ccccc3Cl)c(F)cc2C)s1 [Example 101, N-[5-[[(1R,2R)-2-(2-chlorophenyl)cyclopropyl]carbamoyl]-4-fluoro-2-methylphenyl]-2-methyl-1,3-thiazole-5-carboxamide] | < 100 nM | 100 to 1000 nM | < 100 nM | < 100 nM | 100 to 1000 nM | – | – |
| Cc1cc(F)c(C(=O)Nc2ccc(O[C@@H]3CCOC3)cn2)cc1NC(=O)c1cnc(N)s1 [Example 198, 2-Amino-N-[4-fluoro-2-methyl-5-[[5-[(3R)-oxolan-3-yl]oxypyridin-2-yl]carbamoyl]phenyl]-1,3-thiazole-5-carboxamide] | > 1000 nM | 100 to 1000 nM | < 100 nM | < 100 nM | > 1000 nM | – | – |
| COC1CN(c2cnc(NC(=O)c3cc(NC(=O)c4cnc(C)s4)c(C)cc3F)cn2)C1 [Example 73, N-(4-fluoro-5-((5-(3-methoxyazetidin-1-yl)pyrazin-2-yl)carbamoyl)-2-methylphenyl)-2-methylthiazole-5-carboxamide] | > 1000 nM | > 1000 nM | < 100 nM | < 100 nM | > 1000 nM | – | – |
| Cc1ncc(C(=O)Nc2cc(C(=O)Nc3ccc(OC4CC4)cn3)c(F)cc2Cl)s1 [Example 49, N-[2-chloro-5-[(5-cyclopropyloxypyridin-2-yl)carbamoyl]-4-fluorophenyl]-2-methyl-1,3-thiazole-5-carboxamide] | > 1000 nM | > 1000 nM | < 100 nM | < 100 nM | > 1000 nM | – | – |
| Cc1ncc(C(=O)Nc2cc(C(=O)Nc3cnc(N4CCC(F)(F)C4)cn3)c(F)cc2C)s1 [Example 92, N-[5-[[5-(3,3-difluoropyrrolidin-1-yl)pyrazin-2-yl]carbamoyl]-4-fluoro-2-methylphenyl]-2-methyl-1,3-thiazole-5-carboxamide] | > 1000 nM | > 1000 nM | < 100 nM | < 100 nM | > 1000 nM | – | – |

— patent publication US20250145606A1 (Arcus Biosciences, Inc., priority 2023, published 2025)
